Experimental data: PubChem BioAssay (NCI)
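Exposure lasted 48 hours, with cells grown in 96-well plates and compounds tested at five concentrations. The concentration for full growth arrest is given as TGI.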

Experiments:
Assay in all cases: inhibition of tumour cell growth, NCI panel, 48 h
[1] = system: ACHN renal
[2] = system: CAKI-1 renal
[3] = system: SF-539 CNS
[4] = system: KM12 colon
[5] = system: K-562 leukemia
[6] = system: SR leukemia
[7] = system: SNB-19 CNS
[8] = system: MCF7 breast
[9] = system: T-47D breast
[10] = system: SN12C renal
[11] = system: SK-MEL-28 melanoma
[12] = system: IGROV1 ovarian
[13] = system: NCI-H522 lung
[14] = system: BT-549 breast
[15] = system: TK-10 renal
[16] = system: NCI-H226 lung
[17] = system: MALME-3M melanoma
[18] = system: NCI-H460 lung
[19] = system: OVCAR-8 ovarian
[20] = system: HT29 colon
[21] = system: SK-OV-3 ovarian
[22] = system: OVCAR-5 ovarian
[23] = system: SF-268 CNS
[24] = system: HCT-15 colon
[25] = system: UACC-62 melanoma
[26] = system: DU-145 prostate
[27] = system: HCC-2998 colon
[28] = system: OVCAR-3 ovarian
[29] = system: SK-MEL-5 melanoma
[30] = system: 786-0 renal
[31] = system: PC-3 prostate
[32] = system: EKVX NSCLC
[33] = system: NCI-H23 lung
[34] = system: NCI/ADR-RES ovarian
[35] = system: A549 NSCLC
[36] = system: MDA-MB-231 breast
[37] = system: RPMI-8226 leukemia
[38] = system: SF-295 CNS
[39] = system: HS 578T breast
[40] = system: U251 CNS
[41] = system: COLO 205 colon
[42] = system: MDA-MB-435
[43] = system: UACC-257 melanoma
[44] = system: SK-MEL-2 melanoma
[45] = system: HCT-116 colon
[46] = system: LOX IMVI melanoma
[47] = system: HOP-92 NSCLC
[48] = system: A498 renal
[49] = system: SW-620 colon
[50] = system: MOLT-4 leukemia
[51] = system: RXF 393 renal
[52] = system: M14 melanoma
[53] = system: SNB-75 CNS
[54] = system: OVCAR-4 ovarian
[55] = system: HOP-62 NSCLC
[56] = system: MDA-N
[57] = system: UO-31 renal
[58] = system: CCRF-CEM leukemia

Measured: TGI

Nc1ncnc2c1ncn2CCCCC(=O)O
not listed: [58]
> 100 µM: all other assays above

CC(=O)N1N=C(c2ccc3ccccc3c2O)CC1c1ccc(N(C)C)cc1 (configuration not stated)
not listed: [7] | [32] | [46]
> 100 µM: all other assays above
